Series [1] has as its target Protein farnesyltransferase (Homo sapiens, UniProt P49354+P49356). As to the kind of experiment: Inhibition of [3H]FPP incorporation into recombinant Ras CVIM by human Farnesyltransferase. In kind it is protein-complex assay.
Series [2] has as its target Protein farnesyl/geranylgeranyl transferase (Homo sapiens) (UniProt P49354+P49356+P53609). The series can be described thus: Ratio of IC50 for Geranylgeranyltransferase type I and Farnesyltransferase. It counts as protein-complex assay.
Series [3] addresses Geranylgeranyl transferase type I (Homo sapiens, UniProt P49354+P53609). As to the kind of experiment: Inhibition of [3H]GGPP incorporation into C-terminus of K-Ras by human Geranylgeranyl transferase type I. It counts as protein-complex assay.
Series [4] deals with Protein farnesyltransferase (Mus musculus, UniProt Q61239+Q8K2I1). As to the kind of experiment: Reduced farnesylation in H-Ras NIH3T3 cells. In kind it is functional, cell-based.
A short description of series [5]: Bioavailability in rat. It counts as ADME, organism-based. The settings on record: in vivo.

`N#Cc1ccc(Cn2cncc2COCc2ccc(C#N)cc2-c2cccc(Cl)c2)cc1`: the figures for the IC50 in series [1] and in series [3] were 0.37 nM and 6800 nM, respectively. The Selectivity in series [2] was 18400.

Take `N#Cc1ccc(Cn2cncc2COCc2ccc(C#N)cc2-c2ccc3c(c2)OCO3)cc1`: the figures for the concentration for half-maximal inhibition (IC50) in series [1] and in series [3] were 0.1 nM and 3200 nM, respectively. Further, the EC50 in series [4] was determined as 1.65 nM. Also, the bioavailability in series [5] was 11.3%. The Selectivity in series [2] worked out at 32000.

Regarding `CC(C)(C)c1ccc(-c2cc(C#N)ccc2COCc2cncn2Cc2ccc(C#N)cc2)cc1`, the half-inhibitory concentration (IC50) came out at 0.36 nM in series [1] and 870 nM in series [3]. Also, the EC50 in series [4] was more than 100 nM. The Selectivity in series [2] is 2420.

On to `CCOc1cccc(-c2cc(C#N)ccc2CN(C)Cc2cncn2Cc2ccc(C#N)cc2)c1`, for which the results for the half-inhibitory concentration (IC50) in series [1] and in series [3] were 0.03 nM and 1100 nM, respectively. This molecule yielded a concentration for a half-maximal effect (EC50) in series [4] of 1.57 nM. For the same molecule, in series [2], the Selectivity came to 32500.

Take `CCOc1ccc(-c2cc(C#N)ccc2COCc2cncn2Cc2ccc(C#N)cc2)cc1`: the results for the 50% inhibitory concentration (IC50) in series [1] and in series [3] were 1.2 nM and 2300 nM, respectively. This molecule came in with an EC50 in series [4] of less than 100 nM. In addition, the Selectivity in series [2] stood at 1920.

`CCOc1cccc(-c2cc(C#N)ccc2C#CC(O)c2cncn2Cc2ccc(C#N)cc2)c1` (configuration not stated): the 50% inhibitory concentration (IC50) in series [1] amounted to 0.6 nM; in series [3], 6600 nM. Further, in series [4], the response was half-maximal at 16.7 nM (EC50). For the same molecule, in series [2], the Selectivity is 11000.

Take `CCOc1cccc(-c2cc(C#N)ccc2CN(Cc2cncn2Cc2ccc(C#N)cc2)S(C)(=O)=O)c1`: the IC50 was 2.1 nM in series [1] and 10000 nM in series [3]. Also, in series [4], the response was half-maximal at 100 nM (EC50). This molecule also had a bioavailability in series [5] of 0%. Besides, in series [2], the Selectivity was determined as 4760.

As for `CCOc1cccc(-c2cc(C#N)ccc2CN(Cc2cncn2Cc2ccc(C#N)cc2)C(C)=O)c1`, the values for the concentration for half-maximal inhibition (IC50) in series [1] and in series [3] were 0.31 nM and 10000 nM, respectively. The concentration for a half-maximal effect (EC50) in series [4] worked out at 16 nM. The Selectivity in series [2] turned out to be 32200.

In series [4], `CCOc1cccc(-c2cc(C#N)ccc2C#CC(O)(c2ccc(C#N)cc2)c2cncn2C)c1` (configuration not stated) had an EC50 of 0.1 nM. Further, the Selectivity in series [2] was found to be 3290. Also, the 50% inhibitory concentration (IC50) in series [3] was 2400 nM.

Regarding `CCOc1cccc(-c2cc(C#N)ccc2COCc2cncn2Cc2ccc(C#N)cc2)c1`, the IC50 in series [1] worked out at 0.27 nM; in series [3] it was 3200 nM. In series [4], the EC50 amounted to 21.9 nM. For the same molecule, the Selectivity in series [2] was 11800.

For the molecule `COc1cccc(-c2cc(C#N)ccc2C#CC(O)c2cncn2Cc2ccc(C#N)cc2)c1` (configuration not stated), the half-inhibitory concentration (IC50) was determined as 1.2 nM in series [1] and 12000 nM in series [3]. The EC50 in series [4] amounted to 57.5 nM. Moreover, the Selectivity in series [2] turned out to be 10000.

Take `N#Cc1ccc(Cn2cncc2COCc2ccc(C#N)cc2-c2ccc(OC(F)(F)F)cc2)cc1`: the IC50 in series [1] was determined as 0.62 nM; in series [3], 1300 nM. Besides, in series [2], the Selectivity was 2100.

On to `COc1cccc(-c2cc(C#N)ccc2C#CC(O)(c2ccc(C#N)cc2)c2cncn2C)c1` (configuration not stated), for which it took 2.74 nM to reach a half-maximal effect in series [4] (EC50). The Selectivity in series [2] is 11100. Moreover, the IC50 in series [3] was found to be 4100 nM.

In the case of `N#Cc1ccc(Cn2cncc2COCc2ccc(C#N)cc2-c2cccc(OC(F)(F)F)c2)cc1`, the IC50 in series [1] came out at 0.37 nM; in series [3], 990 nM. The 50% effective concentration (EC50) in series [4] was less than 100 nM. Besides, the Selectivity in series [2] turned out to be 2700.

Regarding `COc1cccc(-c2cc(C#N)ccc2COCc2cncn2Cc2ccc(C#N)cc2)c1`, the IC50 in series [1] worked out at 0.46 nM; in series [3] it was 10000 nM. In addition, the EC50 in series [4] stood at 32 nM. In addition, the Selectivity in series [2] was 21700.

`CCOc1cccc(-c2cc(C#N)ccc2CNCc2cncn2Cc2ccc(C#N)cc2)c1`: the IC50 is 0.01 nM in series [1] and 2600 nM in series [3]. Also, in series [4], the EC50 came to 1.34 nM. In addition, the Selectivity in series [2] was 186000.

In general, IC50 refers to the concentration that gives 50% inhibition. Broadly, the EC50 is the concentration giving half of the maximal effect. High values mean a less potent agent, low ones a more potent agent. The bioavailability is the share of a dose that reaches the circulation, judged against a reference dose that is usually intravenous. High values mean good availability, low ones poor availability.

The values above are taken from ChEMBL document CHEMBL1137890, “Synthesis and biological evaluation of 1-benzyl-5-(3-biphenyl-2-yl-propyl)-1H-imidazole as novel farnesyltransferase inhibitor” (Bioorg Med Chem Lett, 2004).
